Molecules are shown by their SMILES.

For data set [1], the target named is T1, Nuclear receptor subfamily 1 group I member 3 (Mus musculus, UniProt O35627).
T1 sequence (O35627 whole entry): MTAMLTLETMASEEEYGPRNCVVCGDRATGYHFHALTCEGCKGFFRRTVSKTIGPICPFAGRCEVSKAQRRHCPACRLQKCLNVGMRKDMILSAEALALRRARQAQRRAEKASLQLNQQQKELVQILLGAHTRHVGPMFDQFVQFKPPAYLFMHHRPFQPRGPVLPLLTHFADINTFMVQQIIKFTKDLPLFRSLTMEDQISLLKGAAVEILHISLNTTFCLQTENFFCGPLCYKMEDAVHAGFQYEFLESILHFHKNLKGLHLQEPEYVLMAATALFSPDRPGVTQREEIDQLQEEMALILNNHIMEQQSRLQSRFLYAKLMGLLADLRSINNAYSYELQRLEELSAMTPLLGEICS
The experiment in a line: Transactivation of mouse CAR1 transfected in human HepG2 cells assessed as CYP2B6 expression at 1 to 30 uM after 24 hrs by luciferase reporter gene assay. In kind it is ADME, cell-based. Conditions: hepg2, 24 h. (In general: Reporter assays use an easily measured gene product as a stand-in for the process of interest.)

The target of data set [2] is T2, Nuclear receptor subfamily 1 group I member 3 (Homo sapiens, UniProt Q14994).
T2 sequence (Q14994 whole entry): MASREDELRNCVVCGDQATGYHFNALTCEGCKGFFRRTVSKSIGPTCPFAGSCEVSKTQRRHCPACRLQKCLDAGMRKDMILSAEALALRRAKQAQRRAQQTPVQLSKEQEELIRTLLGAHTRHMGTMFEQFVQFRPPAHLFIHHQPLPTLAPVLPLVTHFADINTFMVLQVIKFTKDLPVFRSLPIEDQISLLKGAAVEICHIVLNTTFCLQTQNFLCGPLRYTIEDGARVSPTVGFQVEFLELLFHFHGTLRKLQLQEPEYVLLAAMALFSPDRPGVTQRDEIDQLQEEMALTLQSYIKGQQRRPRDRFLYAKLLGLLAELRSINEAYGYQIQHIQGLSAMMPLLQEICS
Kind of data set: Transactivation of human CAR1 transfected in human HepG2 cells assessed as CYP2B6 expression at 1 to 30 uM after 24 hrs by luciferase reporter gene assay. In kind it is ADME, cell-based. Conditions: hepg2, 24 h; call rule not given here.

In data set [3] the target is T3, Nuclear receptor subfamily 1 group I member 2 (Rattus norvegicus, UniProt Q9R1A7).
T3 sequence (Q9R1A7 whole entry): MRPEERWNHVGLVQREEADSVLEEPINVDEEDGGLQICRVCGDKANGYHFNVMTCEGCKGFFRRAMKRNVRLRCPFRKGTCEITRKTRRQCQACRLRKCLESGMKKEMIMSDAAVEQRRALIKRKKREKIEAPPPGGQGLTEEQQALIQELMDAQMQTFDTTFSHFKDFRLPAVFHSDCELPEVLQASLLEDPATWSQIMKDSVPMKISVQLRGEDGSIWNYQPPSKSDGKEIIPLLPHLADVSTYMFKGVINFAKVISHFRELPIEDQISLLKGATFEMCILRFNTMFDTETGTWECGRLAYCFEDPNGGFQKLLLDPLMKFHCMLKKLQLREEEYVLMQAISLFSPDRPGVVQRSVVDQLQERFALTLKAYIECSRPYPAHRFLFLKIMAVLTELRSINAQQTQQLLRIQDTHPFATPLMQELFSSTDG
The experiment in a line: Transactivation of rat PXR at 0.1 to 30 uM after 24 to 48 hrs by cell-based luciferase reporter gene assay. In kind it is ADME.

In data set [4] the target is T4, Aryl hydrocarbon receptor (Homo sapiens, UniProt P35869).
T4 sequence (P35869 whole entry): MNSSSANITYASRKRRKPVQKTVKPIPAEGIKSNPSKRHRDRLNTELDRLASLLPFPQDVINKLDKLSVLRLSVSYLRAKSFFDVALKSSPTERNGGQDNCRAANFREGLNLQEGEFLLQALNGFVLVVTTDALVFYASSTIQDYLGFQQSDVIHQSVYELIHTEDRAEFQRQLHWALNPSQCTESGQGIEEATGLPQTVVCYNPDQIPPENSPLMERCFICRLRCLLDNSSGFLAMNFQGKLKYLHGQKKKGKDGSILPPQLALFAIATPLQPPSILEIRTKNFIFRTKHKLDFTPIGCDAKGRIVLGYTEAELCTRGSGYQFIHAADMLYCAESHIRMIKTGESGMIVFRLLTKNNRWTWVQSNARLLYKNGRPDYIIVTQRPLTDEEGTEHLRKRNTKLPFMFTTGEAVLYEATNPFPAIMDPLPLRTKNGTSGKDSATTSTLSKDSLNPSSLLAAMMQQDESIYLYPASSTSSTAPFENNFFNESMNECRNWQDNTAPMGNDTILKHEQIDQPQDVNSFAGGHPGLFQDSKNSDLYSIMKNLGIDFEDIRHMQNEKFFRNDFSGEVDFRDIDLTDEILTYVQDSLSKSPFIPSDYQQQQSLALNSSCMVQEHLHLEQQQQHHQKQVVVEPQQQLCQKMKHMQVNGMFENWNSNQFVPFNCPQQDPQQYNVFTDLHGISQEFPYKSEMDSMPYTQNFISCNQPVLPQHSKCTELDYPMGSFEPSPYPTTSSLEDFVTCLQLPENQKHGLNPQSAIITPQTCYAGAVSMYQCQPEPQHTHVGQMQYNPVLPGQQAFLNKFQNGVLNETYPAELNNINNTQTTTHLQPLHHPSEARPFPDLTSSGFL
Kind of data set: Transactivation of human AhR at 0.1 to 30 uM after 24 to 48 hrs by cell-based luciferase reporter gene assay.

Data set [5] in a line: Transactivation of human CAR1 Ala retention mutant transfected in human HepG2 cells assessed as CYP2B6 expression at 1 to 30 uM after 24 hrs by luciferase reporter gene assay. In kind it is ADME, cell-based. Conditions: hepg2, 24 h.
Data set [6] addresses T2, Nuclear receptor subfamily 1 group I member 3. The experiment in a line: Transactivation of human CAR1 transfected in human primary hepatocytes assessed as nuclear translocation at 30 uM by confocal laser scanning microscopy. In kind it is cell-based, Hepatocyte.
Data set [7] has the same target. Kind of data set: Transactivation of human CAR1 transfected in human primary hepatocytes assessed as nuclear translocation at 1 mM by confocal laser scanning microscopy. In kind it is cell-based, Hepatocyte. Conditions: 1000 µM.

On to `COc1ccc2c3c1O[C@H]1C(=O)CC[C@@]4(O)[C@@H](C2)NCC[C@]314`, for which the Activity entry in data set [1] was “Not Active”; in data set [2] it was “Active”; in data set [3], “Not Active”; in data set [4], “Not Active”; in data set [5] it was “Not Active”.
As for `COc1ccc2c3c1O[C@H]1C(=O)CC[C@@]4(O)[C@@H](C2)N(C)CC[C@]314` [OXYCODONE], the Activity result was “Not Active” in data set [1]; “Active” in data set [2]; “Not Active” in data set [6]; “Not Active” in data set [3]; “Not Active” in data set [4]; “Not Active” in data set [5].
Consider `CN1CC[C@]23c4c5ccc(O)c4O[C@H]2C(=O)CC[C@@]3(O)[C@H]1C5` [OXYMORPHONE], for which the Activity entry is given as “Not Active” in data set [1]; “Active” in data set [2]; “Not Active” in data set [3]; “Not Active” in data set [4]; “Not Active” in data set [5].
As for `CCC1(c2ccccc2)C(=O)NC(=O)NC1=O` [PHENOBARBITAL], the outcome in data set [7] was Active.

For the origin of these results see ChEMBL document CHEMBL3526135, “Induction of xenobiotic receptors, transporters, and drug metabolizing enzymes by oxycodone” (Drug Metab Dispos, 2013).
